# Calls of active or inactive are those of the source.
# What was measured:
# [1] = target: T1, Carboxy-terminal domain RNA polymerase II polypeptide A small phosphatase 1 (Homo sapiens, UniProt Q9GZU7); assay: CTDSP1 inhibitors, concentration-response, biochemical, absorbance readout, ultra-high-throughput screen actives (AID 540297); assay type: functional
# T1 sequence (Q9GZU7 whole entry): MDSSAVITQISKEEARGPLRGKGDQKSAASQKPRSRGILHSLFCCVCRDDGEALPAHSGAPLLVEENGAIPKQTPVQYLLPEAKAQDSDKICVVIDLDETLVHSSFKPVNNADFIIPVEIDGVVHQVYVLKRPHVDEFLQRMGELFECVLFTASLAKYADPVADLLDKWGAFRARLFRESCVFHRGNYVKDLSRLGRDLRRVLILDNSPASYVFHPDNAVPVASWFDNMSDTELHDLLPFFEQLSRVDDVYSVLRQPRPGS
# [2] = target: Tyrosine-protein phosphatase non-receptor type 11 (Homo sapiens, UniProt Q06124); assay: PTPN11 enzyme inhibitors – biochemical, selectivity assay for STEP inhibitor project, dose response (AID 602367); assay type: functional; conditions: read-out: IC50_Mean
# Chain of Tyrosine-protein phosphatase non-receptor type 11 (Q06124 whole entry): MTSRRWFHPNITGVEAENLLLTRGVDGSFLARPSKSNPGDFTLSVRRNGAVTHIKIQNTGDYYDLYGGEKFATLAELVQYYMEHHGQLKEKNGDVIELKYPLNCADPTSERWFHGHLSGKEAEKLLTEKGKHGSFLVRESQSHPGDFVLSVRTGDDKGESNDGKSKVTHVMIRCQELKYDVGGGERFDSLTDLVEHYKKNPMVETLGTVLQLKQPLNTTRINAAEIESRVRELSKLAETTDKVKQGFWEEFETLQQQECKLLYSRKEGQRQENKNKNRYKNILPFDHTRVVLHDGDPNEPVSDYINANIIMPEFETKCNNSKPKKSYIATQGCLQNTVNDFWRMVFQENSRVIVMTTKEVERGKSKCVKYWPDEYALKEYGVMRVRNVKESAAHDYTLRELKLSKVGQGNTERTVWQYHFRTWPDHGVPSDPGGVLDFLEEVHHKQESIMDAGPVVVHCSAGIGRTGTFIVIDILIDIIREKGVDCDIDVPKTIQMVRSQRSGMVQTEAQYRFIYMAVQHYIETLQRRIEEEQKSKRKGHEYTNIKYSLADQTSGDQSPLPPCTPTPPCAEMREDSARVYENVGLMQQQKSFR
# [3] = target: Dual specificity protein phosphatase 3 (Homo sapiens, UniProt P51452); assay: VHR phosphatase inhibition, dose response, selectivity assay for STEP inhibitor project, biochemical (AID 602374); assay type: functional; conditions: read-out: IC50_Mean
# Chain of Dual specificity protein phosphatase 3 (P51452 whole entry): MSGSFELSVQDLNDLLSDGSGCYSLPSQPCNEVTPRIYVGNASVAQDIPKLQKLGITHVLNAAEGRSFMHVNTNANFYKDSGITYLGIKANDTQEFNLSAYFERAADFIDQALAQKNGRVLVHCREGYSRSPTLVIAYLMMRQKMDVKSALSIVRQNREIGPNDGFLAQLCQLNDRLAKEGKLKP
# [4] = target: Tyrosine-protein phosphatase non-receptor type 5 (Homo sapiens, UniProt P54829); assay: PTPN5 enzyme inhibition – biochemical, fluorescence intensity, uHTS hits, confirmation (AID 602372); assay type: functional; conditions: read-out: IC50_Mean
# Chain of Tyrosine-protein phosphatase non-receptor type 5 (P54829 whole entry): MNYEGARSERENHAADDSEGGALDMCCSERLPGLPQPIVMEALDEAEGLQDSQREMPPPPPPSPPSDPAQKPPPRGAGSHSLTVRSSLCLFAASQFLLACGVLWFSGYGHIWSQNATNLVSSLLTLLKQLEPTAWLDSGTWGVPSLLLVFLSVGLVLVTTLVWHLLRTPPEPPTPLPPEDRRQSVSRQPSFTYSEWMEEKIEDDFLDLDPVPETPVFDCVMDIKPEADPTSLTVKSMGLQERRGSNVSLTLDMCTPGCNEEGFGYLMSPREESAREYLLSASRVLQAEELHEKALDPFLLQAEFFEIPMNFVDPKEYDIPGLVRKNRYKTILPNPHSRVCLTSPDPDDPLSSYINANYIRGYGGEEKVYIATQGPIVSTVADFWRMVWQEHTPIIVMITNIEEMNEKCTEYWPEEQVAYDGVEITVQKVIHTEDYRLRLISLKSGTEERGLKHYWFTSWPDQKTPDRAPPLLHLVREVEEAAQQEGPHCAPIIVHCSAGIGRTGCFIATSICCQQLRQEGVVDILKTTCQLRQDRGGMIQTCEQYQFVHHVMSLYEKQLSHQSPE
# CHO-K1 = assay: (§1) Counterscreen for antagonists of the orexin 1 receptor (OX1R; HCRTR1): Homogeneous time resolved fluorescence (HTRF)-based cell-based dose response assay to identify antagonists of the parental CHO-K1 cell line. [Related pubchem assays (depositor defined):AID434989, AID435008, AID463079, AID485270, AID492963, AID492964, AID492965, AID493232, AID504699, AID504701]; assay type: functional; conditions: Cricetulus griseus
# [5] = target: T2, Orexin/Hypocretin receptor type 1 (Homo sapiens, UniProt O43613); assay: Homogeneous Time Resolved Fluorescence (HTRF)-based cell-based high throughput dose response assay for antagonists of the orexin 1 receptor (OX1R; HCRTR1). [Related pubchem assays (depositor defined):AID434989, AID435008, AID463079, AID485270, AID492963, AID492964, AID492965, AID493232, AID504717, AID504718]; assay type: functional
# T2 sequence (O43613 whole entry): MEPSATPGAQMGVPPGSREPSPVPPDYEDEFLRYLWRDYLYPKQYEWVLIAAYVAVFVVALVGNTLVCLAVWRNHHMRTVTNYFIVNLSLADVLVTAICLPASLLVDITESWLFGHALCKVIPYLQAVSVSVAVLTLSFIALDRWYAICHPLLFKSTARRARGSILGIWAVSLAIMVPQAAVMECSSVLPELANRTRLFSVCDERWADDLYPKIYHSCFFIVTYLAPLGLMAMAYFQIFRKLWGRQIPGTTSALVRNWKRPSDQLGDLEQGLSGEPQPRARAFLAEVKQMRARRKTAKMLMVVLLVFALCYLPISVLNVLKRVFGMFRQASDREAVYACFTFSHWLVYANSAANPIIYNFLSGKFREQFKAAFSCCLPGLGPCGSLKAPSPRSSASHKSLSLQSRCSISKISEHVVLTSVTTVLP
# [6] = as §1, with “Fluorescence-based” for “Homogeneous time resolved fluorescence (HTRF)-based”, “cell-based high throughput” for “cell-based”, “CHO” for “CHO-K1”; assay type: functional
# Orexin receptor type 2 [7] = target: T3, Orexin receptor type 2 (Homo sapiens, UniProt O43614); assay: Counterscreen assay for antagonists of the orexin 1 receptor (OX1R; HCRTR1): Fluorescence-based cell-based dose response assay for antagonists of the orexin 2 receptor (OX2R; HCRTR2), run by assay provider.; assay type: functional
# T3 sequence (O43614 whole entry): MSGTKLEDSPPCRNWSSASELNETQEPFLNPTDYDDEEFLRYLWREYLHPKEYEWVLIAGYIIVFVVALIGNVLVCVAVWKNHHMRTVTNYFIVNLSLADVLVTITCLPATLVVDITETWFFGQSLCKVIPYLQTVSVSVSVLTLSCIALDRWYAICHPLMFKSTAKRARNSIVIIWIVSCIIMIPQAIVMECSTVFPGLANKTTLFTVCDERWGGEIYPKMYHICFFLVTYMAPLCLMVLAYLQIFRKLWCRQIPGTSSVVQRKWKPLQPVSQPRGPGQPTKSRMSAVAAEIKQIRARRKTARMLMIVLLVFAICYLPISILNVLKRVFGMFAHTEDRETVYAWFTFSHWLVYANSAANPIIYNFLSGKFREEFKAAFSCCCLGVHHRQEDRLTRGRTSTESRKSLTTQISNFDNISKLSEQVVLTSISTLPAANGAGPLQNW
# Orexin receptor type 2 [8] = target: T3, Orexin receptor type 2; assay: Counterscreen assay for antagonists of the orexin 1 receptor (OX1R; HCRTR1): Homogeneous Time Resolved Fluorescence (HTRF)-based cell-based dose response assay for antagonists of the orexin 2 receptor (OX2R; HCRTR2), run by assay provider.; assay type: functional
# [9] = target: T2, Orexin/Hypocretin receptor type 1; assay: Fluorescence-based cell-based high throughput dose response assay for antagonists of the orexin 1 receptor (OX1R; HCRTR1). [Related pubchem assays (depositor defined):AID434989, AID435008, AID463079, AID485270, AID492963, AID492964, AID492965, AID493232, AID504717, AID504718]; assay type: functional
# [10] = target: T4, Mitochondrial peptide methionine sulfoxide reductase (Bos taurus, UniProt P54149); assay type: functional;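 note: absorbance read-out, biochemical high-throughput dose-response screen for MsrA inhibitors, confirmatory; recombinant bovine MsrA coupled to E. coli TrxB with NADPH and selenocystamine; potency is for inhibitors of MsrA activity on DMSO substrate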
# T4 sequence (P54149 whole entry): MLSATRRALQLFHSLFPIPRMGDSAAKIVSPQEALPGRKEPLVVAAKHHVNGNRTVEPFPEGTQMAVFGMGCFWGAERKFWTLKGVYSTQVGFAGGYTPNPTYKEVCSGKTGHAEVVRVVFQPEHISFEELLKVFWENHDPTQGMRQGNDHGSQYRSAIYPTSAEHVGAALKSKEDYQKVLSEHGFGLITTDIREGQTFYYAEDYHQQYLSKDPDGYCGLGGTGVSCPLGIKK
# [11] = target: DNA (cytosine-5)-methyltransferase 1 (Homo sapiens, UniProt P26358); assay: inhibition of DNA methylation by DNMT1 – biochemical, fluorescent molecular beacon, confirmation (AID 602386); assay type: functional
# Chain of DNA (cytosine-5)-methyltransferase 1 (P26358 whole entry): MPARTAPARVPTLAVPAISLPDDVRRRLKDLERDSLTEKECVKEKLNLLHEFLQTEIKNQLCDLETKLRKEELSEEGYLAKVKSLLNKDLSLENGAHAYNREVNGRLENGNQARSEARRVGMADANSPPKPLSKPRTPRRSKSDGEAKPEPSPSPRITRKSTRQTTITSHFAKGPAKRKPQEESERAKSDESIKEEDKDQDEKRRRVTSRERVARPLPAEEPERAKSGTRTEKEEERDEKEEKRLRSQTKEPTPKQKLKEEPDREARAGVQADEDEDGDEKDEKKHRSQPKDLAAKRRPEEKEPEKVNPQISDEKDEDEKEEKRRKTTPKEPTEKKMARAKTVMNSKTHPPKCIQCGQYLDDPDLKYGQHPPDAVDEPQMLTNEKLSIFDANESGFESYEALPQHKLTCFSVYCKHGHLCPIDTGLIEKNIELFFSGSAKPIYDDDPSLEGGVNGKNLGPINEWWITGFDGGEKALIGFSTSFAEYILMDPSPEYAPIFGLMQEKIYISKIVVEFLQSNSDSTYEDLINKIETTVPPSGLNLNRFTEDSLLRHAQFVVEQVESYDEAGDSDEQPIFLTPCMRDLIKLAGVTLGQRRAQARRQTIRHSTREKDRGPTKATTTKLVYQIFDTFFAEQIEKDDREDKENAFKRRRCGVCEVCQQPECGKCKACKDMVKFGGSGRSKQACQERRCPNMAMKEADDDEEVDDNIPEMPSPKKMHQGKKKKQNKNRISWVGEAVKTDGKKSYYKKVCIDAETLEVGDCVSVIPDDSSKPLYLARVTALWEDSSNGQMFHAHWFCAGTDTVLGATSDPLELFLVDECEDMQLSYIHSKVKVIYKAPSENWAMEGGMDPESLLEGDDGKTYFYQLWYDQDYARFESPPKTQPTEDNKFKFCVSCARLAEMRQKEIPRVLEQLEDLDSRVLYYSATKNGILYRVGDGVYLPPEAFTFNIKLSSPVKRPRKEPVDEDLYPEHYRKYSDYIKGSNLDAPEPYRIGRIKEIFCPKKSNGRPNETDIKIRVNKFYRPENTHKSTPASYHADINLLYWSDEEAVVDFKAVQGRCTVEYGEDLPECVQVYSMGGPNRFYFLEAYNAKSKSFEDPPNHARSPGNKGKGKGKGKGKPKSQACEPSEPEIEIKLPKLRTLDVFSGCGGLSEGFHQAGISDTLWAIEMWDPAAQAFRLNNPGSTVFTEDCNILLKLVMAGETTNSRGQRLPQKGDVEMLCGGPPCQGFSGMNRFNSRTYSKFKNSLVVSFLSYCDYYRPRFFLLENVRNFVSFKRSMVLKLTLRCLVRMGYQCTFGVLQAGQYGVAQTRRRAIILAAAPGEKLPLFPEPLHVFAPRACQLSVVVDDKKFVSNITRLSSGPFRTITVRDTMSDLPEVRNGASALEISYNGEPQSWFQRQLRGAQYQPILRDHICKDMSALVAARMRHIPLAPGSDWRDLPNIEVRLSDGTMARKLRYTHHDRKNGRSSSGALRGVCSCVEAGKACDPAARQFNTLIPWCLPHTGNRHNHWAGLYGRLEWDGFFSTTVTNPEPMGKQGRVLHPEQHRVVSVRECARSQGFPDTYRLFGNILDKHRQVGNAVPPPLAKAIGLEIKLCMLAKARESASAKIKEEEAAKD
# [12] = target: 26S proteasome non-ATPase regulatory subunit 14 (Homo sapiens, UniProt O00487); assay: inhibition of proteasome subunit RPN11 – biochemical, fluorescence polarization, uHTS hits, confirmation (AID 602368); assay type: functional
# Chain of 26S proteasome non-ATPase regulatory subunit 14 (O00487 whole entry): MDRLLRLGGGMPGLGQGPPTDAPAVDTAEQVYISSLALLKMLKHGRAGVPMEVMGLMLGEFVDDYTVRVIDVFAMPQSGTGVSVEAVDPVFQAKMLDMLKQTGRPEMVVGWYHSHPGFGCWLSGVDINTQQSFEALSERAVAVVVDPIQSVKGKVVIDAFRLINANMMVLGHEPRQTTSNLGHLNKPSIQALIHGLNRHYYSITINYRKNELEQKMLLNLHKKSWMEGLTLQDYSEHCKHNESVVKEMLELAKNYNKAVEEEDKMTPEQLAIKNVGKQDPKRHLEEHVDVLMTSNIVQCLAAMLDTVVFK
# Streptococcus = assay: GAS UMAA2166 growth inhibition – luminescence, BacTiterGlo, counter-screen for streptokinase expression inhibitor project, dose response (AID 1915); assay type: functional, organism-based;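 note: potency for reduction of bacterial viability or growth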
# Prothrombin = Prothrombin (Bos taurus, UniProt P00735); assay: thrombin protease inhibitors – biochemical, fluorescence polarization, uHTS hits, dose response (AID 602369); assay type: functional
# [13] = system: Streptococcus sp. 'group A'; assay: Streptococcus pyogenes SK(-)GAS viability under kanamycin – luminescence, BacTiterGlo, confirmation, counter-screen for streptokinase expression inhibitor project, dose response (AID 1900); assay type: functional, organism-based
# Streptokinase A = target: T5, Streptokinase A (Streptococcus pyogenes serotype M1, UniProt P10520); assay: viability-normalized secreted streptokinase activity reduction – plasminogen activation absorbance, OD405, dose response (AID 1914); assay type: functional, Streptococcus pyogenes M1 GAS;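 note: secreted streptokinase activity via plasminogen activation per viability signal from cell pellet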
# T5 sequence (P10520 whole entry): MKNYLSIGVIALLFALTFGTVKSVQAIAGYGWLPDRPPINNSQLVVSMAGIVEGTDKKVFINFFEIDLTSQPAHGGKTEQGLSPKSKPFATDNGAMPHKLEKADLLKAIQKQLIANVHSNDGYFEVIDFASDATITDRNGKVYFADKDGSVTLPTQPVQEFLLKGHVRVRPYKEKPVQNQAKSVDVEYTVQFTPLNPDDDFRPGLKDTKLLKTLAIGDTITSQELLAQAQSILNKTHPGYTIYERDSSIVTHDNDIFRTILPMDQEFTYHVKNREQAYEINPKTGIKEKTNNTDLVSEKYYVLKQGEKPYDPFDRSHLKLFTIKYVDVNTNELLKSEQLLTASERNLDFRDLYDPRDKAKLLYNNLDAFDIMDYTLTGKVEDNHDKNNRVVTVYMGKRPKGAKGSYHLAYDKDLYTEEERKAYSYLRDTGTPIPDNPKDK
# cells [14] = assay: cells
# [15] = target: 72 kDa type IV collagenase (Homo sapiens, UniProt P08253); assay: Dose Response validation of uHTS RPN11 inhibitor hits using a MMP-2 Fluorescence assay.; assay type: functional
# Chain of 72 kDa type IV collagenase (P08253 whole entry): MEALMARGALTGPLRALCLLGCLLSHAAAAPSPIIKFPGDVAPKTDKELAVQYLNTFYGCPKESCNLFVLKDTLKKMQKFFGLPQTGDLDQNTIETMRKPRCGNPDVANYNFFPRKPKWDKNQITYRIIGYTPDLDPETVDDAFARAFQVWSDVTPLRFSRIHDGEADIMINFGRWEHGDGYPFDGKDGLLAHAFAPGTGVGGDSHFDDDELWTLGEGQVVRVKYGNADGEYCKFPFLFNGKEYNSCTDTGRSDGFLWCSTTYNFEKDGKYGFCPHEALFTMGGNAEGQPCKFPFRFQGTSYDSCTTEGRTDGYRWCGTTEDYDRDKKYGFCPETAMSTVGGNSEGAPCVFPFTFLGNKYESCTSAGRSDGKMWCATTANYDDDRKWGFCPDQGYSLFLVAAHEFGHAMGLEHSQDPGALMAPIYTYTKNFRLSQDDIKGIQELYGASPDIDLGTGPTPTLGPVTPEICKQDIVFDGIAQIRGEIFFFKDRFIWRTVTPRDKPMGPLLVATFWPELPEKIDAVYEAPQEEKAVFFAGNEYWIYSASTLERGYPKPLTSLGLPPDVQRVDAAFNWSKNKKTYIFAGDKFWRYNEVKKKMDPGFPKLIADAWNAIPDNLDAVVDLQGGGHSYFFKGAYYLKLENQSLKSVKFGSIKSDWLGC
# [16] = target: Protein disulfide-isomerase (Homo sapiens, UniProt P07237); assay: inhibition of PDI-driven insulin aggregation – biochemical, turbidity, absorbance, cherry-picked samples, dose response (AID 602350); assay type: functional
# Chain of Protein disulfide-isomerase (P07237 whole entry): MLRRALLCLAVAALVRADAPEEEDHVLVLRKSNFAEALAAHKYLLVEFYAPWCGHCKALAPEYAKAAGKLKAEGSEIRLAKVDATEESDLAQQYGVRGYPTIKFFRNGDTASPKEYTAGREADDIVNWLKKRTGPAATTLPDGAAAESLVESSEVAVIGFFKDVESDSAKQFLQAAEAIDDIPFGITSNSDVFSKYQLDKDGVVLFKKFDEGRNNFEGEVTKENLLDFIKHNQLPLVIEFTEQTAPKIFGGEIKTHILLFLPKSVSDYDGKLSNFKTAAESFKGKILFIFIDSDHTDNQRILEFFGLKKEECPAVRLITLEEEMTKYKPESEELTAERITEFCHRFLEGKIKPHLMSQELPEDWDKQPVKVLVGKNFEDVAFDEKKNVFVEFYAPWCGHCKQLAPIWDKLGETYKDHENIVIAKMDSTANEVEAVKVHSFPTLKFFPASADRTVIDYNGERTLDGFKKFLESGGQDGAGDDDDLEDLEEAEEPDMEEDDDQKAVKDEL
# [17] = target: T6, High affinity choline transporter 1 (Homo sapiens, UniProt Q9GZV3); assay: human choline transporter blockers, potency – cell-based, 5-point CRC, membrane potential dye, dose response (AID 504840); assay type: functional
# T6 sequence (Q9GZV3 whole entry): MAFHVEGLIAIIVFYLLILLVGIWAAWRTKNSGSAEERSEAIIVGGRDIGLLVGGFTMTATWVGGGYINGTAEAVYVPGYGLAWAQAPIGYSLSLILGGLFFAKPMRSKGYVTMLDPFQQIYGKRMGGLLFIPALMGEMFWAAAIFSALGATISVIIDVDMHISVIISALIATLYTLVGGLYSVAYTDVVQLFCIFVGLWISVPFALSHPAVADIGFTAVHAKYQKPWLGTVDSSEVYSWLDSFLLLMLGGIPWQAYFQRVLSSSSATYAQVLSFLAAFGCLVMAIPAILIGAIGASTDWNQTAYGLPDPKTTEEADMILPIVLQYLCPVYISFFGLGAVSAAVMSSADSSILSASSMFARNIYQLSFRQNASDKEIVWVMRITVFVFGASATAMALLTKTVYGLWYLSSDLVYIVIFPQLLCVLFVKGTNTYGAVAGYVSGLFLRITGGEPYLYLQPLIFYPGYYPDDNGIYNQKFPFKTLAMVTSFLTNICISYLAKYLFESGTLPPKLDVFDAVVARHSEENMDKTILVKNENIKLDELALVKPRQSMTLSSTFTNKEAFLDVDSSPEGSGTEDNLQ
# [18] = target: T6, High affinity choline transporter 1; assay: human choline transporter blockers, potency – cell-based, 10-point CRC, membrane potential dye, dose response (AID 588401); assay type: functional;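 note: membrane potential dye fluorescence of choline-evoked depolarization via CHT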
# [19] = target: Adenosylmethionine-8-amino-7-oxononanoate aminotransferase (Mycobacterium tuberculosis, UniProt P9WQ81); assay: Mycobacterium tuberculosis BioA enzyme inhibitor Measured in Biochemical System Using Plate Reader - 2163-02_Inhibitor_Dose_CherryPick_Activity.; assay type: functional, Mycobacterium tuberculosis UT205
# Chain of Adenosylmethionine-8-amino-7-oxononanoate aminotransferase (P9WQ81 whole entry): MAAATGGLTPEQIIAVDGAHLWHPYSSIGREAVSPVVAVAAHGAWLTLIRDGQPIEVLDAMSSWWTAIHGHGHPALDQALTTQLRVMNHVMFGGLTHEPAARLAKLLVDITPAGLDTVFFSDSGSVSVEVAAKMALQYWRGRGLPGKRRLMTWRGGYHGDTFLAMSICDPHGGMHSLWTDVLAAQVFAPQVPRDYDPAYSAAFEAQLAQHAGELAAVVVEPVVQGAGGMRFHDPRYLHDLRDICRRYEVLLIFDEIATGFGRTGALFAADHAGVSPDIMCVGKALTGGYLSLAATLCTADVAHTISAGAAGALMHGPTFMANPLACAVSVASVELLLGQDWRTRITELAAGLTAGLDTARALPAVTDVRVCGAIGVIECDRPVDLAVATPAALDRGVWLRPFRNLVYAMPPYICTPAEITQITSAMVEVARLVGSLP
# [20] = target: T7, Small ubiquitin-related modifier 1 (Homo sapiens, UniProt P63165); assay: SUMO1 protein interaction blockers, potency – biochemical, fluorescence polarization, uHTS hits, dose response (AID 624382); assay type: functional; conditions: read-out: IC50_Mean
# T7 sequence (P63165 whole entry): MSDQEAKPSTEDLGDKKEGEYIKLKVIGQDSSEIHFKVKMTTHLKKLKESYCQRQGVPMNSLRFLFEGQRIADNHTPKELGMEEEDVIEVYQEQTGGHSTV
# [21] = target: T7, Small ubiquitin-related modifier 1; assay: SUMO1 protein-protein binding blockers, potency – biochemical, FRET, dose response (AID 624383); assay type: functional; conditions: read-out: IC50_Mean
# [22] = target: ATP-dependent translocase ABCB1 (Homo sapiens, UniProt P08183); assay: inhibition of P-gp mediated JC-1 efflux – Jurkat-DNR cells, flow cytometry, dose response (AID 1689); assay type: functional
# cells [23] = assay type: functional, cell-based
# cells [24] = assay type: functional, cell-based; remark: listed apart in the source
compound,measurement,setting,value
CCCCCn1c(N)c(-c2nc3ccccc3o2)c2c([N+](=O)[O-])nn(C)c(=O)c21,IC50,[1],3.06 µM (active)
same,IC50,[2],0.738 µM (active)
same,IC50,[3],0.343 µM (active)
same,IC50,[4],> 80 µM (inactive)
COc1cc(CN2CC(=O)N(c3ccccc3Cl)C2=S)cc(OC)c1OC,IC50,CHO-K1,> 66.2 µM (inactive)
same,IC50,[5],1.01 µM (active)
same,IC50,[6],21.4 µM (inactive)
same,IC50,Orexin receptor type 2 [7],> 88.8 µM (inactive)
same,IC50,Orexin receptor type 2 [8],> 50 µM (inactive)
same,IC50,[9],6.26 µM (active)
O=C(O)COc1ccc(/C=N/NC(=O)/C(=C/C=C/c2ccccc2)NC(=O)c2ccccc2)cc1,IC50,[10],103 µM (inactive)
CCOC(=O)C1=C(C)N=c2s/c(=C/c3ccc(OCC(=O)O)c(OC)c3)c(=O)n2C1c1ccc(Cl)cc1 (centres undefined),IC50,[11],10.2 µM (active)
same,IC50,[12],11.7 µM (active)
same,EC50,Streptococcus,13.2 µM (active)
same,IC50,Prothrombin,25.1 µM (active)
same,EC50,[13],9.79 µM (active)
same,EC50,Streptokinase A,> 150 µM (not active)
same,IC50,cells [14],45.5 µM (active)
same,IC50,[15],> 100 µM (inactive)
COc1ccccc1N1CCN(C(=O)C(=O)N/N=C/c2cccc(O)c2)CC1,AC50,[16],19.5 µM (active)
CCc1c(C)nc(N)nc1N1N=C1SCCOc1ccccc1,IC50,[17],9.19 µM (active)
same,IC50,[18],4.47 µM (active)
Fc1ccccc1N=C(S)NNc1ncc(C(F)(F)F)cc1Cl,IC50,[17],10 µM (active)
same,IC50,[18],3.55 µM (active)
CC(=O)Nc1ccc2[nH]c(-c3cccnc3)nc2c1,AC50,[19],4.1 µM (active)
O=c1cc(-c2ccc(O)cc2)oc2c1ccc1ccccc12,IC50,[20],> 66.6 µM (inactive)
same,IC50,[12],47.7 µM (active)
same,IC50,[21],7.87 µM (active)
same,IC50,Prothrombin,62.2 µM (active)
same,IC50,[15],> 100 µM (inactive)
Cc1ccc(-c2csc3nnc(SCC(=O)Nc4nsc(-c5ccccc5)n4)n23)cc1,IC50,CHO-K1,> 66.2 µM (inactive)
same,IC50,[5],2.53 µM (active)
same,IC50,[6],> 49.7 µM (inactive)
same,IC50,Orexin receptor type 2 [7],> 88.8 µM (inactive)
same,IC50,Orexin receptor type 2 [8],0.177 µM (active)
same,IC50,[9],5.64 µM (active)
COc1ccc(/C=N/NC(=O)c2cccnc2)cc1CN1CCN(c2ccc(F)cc2)CC1,EC50,[22],1.01 µM (active)
same,EC50,cells [23],> 350 µM (not active)
same,EC50,cells [24],> 350 µM (not active)
